Results from article PMC9395446, “First-in-human phase 1/1b study to evaluate sitravatinib in patients with advanced solid tumors” (Investigational New Drugs, 2022).

Experiment: Safety in phase 1/1b study (DLTs, TRAEs, TEAEs; CTCAE v4.03)
Assay type: in vivo, human
Description: Safety assessments included evaluation of DLTs, AEs, physical examinations, vital sign measurements, electrocardiogram recordings and laboratory tests.
A DLT was defined as a grade ≥ 4 hematologic abnormality lasting ≥ 4 days; grade 3 thrombocytopenia with clinically significant bleeding; febrile neutropenia; clinically significant grade ≥ 3 non-hematologic AEs not related to underlying malignancy; intolerable grade 2 AEs; or toxicity resulting in an inability to deliver 80% of the dose during the first treatment cycle.
The safety population included all patients who received ≥ 1 dose of sitravatinib. […] The PK evaluable population included all patients with sufficient concentration-time data for PK parameter evaluation. The modified intent-to-treat (mITT) population included all phase 1b patients who received ≥ 1 dose of study drug.

COCCNCc1ccc(-c2cc3nccc(Oc4ccc(NC(=O)C5(C(=O)Nc6ccc(F)cc6)CC5)cc4F)c3s2)nc1 [sitravatinib, Sitravatinib]
ALT increased TRAE, any grade (150 mg phase 1b): 18 (18.2) n (%)
ALT increased TRAE, grade ≥3 (150 mg phase 1b): 2 (2.0) n (%)
AST increased TEAE, any grade (150 mg phase 1b): 26 (26.3) n (%)
AST increased TEAE, grade ≥3 (150 mg phase 1b): 3 (3.0) n (%)
AST increased TRAE, any grade (150 mg phase 1b): 20 (20.2) n (%)
AST increased TRAE, grade ≥3 (150 mg phase 1b): 2 (2.0) n (%)
Abdominal pain TEAE, any grade (150 mg phase 1b): 26 (26.3) n (%)
Abdominal pain TEAE, grade ≥3 (150 mg phase 1b): 2 (2.0) n (%)
Abdominal pain TRAE, any grade (150 mg phase 1b): 14 (14.1) n (%)
Abdominal pain TRAE, grade ≥3 (150 mg phase 1b): 0 n (%)
Anemia TEAE, any grade (150 mg phase 1b): 23 (23.2) n (%)
Anemia TEAE, grade ≥3 (150 mg phase 1b): 8 (8.1) n (%)
Any TEAE (150 mg phase 1b): 99 (100.0) n (%)
Any TRAE (150 mg phase 1b): 92 (92.9) n (%)
Asthenia TEAE, any grade (150 mg phase 1b): 9 (9.1) n (%)
Asthenia TEAE, grade ≥3 (150 mg phase 1b): 0 n (%)
Back pain TEAE, any grade (150 mg phase 1b): 18 (18.2) n (%)
Back pain TEAE, grade ≥3 (150 mg phase 1b): 3 (3.0) n (%)
Blood and lymphatic system disorders TEAE, any grade (150 mg phase 1b): 27 (27.3) n (%)
Blood and lymphatic system disorders TEAE, grade ≥3 (150 mg phase 1b): 11 (11.1) n (%)
Blood creatinine increased TEAE, any grade (150 mg phase 1b): 15 (15.2) n (%)
Blood creatinine increased TEAE, grade ≥3 (150 mg phase 1b): 0 n (%)
Cardiac disorders TEAE, any grade (150 mg phase 1b): 15 (15.2) n (%)
Cardiac disorders TEAE, grade ≥3 (150 mg phase 1b): 6 (6.1) n (%)
Constipation TEAE, any grade (150 mg phase 1b): 40 (40.4) n (%)
Constipation TEAE, grade ≥3 (150 mg phase 1b): 0 n (%)
Constipation TRAE, any grade (150 mg phase 1b): 9 (9.1) n (%)
Constipation TRAE, grade ≥3 (150 mg phase 1b): 0 n (%)
Cough TEAE, any grade (150 mg phase 1b): 15 (15.2) n (%)
Cough TEAE, grade ≥3 (150 mg phase 1b): 0 n (%)
Decreased appetite TEAE, any grade (150 mg phase 1b): 38 (38.4) n (%)
Decreased appetite TEAE, grade ≥3 (150 mg phase 1b): 1 (1.0) n (%)
Decreased appetite TRAE, any grade (150 mg phase 1b): 27 (27.3) n (%)
Decreased appetite TRAE, grade ≥3 (150 mg phase 1b): 1 (1.0) n (%)
Dehydration TEAE, any grade (150 mg phase 1b): 23 (23.2) n (%)
Dehydration TEAE, grade ≥3 (150 mg phase 1b): 4 (4.0) n (%)
Diarrhea TEAE, any grade (150 mg phase 1b): 67 (67.7) n (%)
Diarrhea TEAE, grade ≥3 (150 mg phase 1b): 18 (18.2) n (%)
Diarrhea TRAE, any grade (150 mg phase 1b): 59 (59.6) n (%)
Diarrhea TRAE, grade ≥3 (150 mg phase 1b): 14 (14.1) n (%)
Dizziness TEAE, any grade (150 mg phase 1b): 19 (19.2) n (%)
Dizziness TEAE, grade ≥3 (150 mg phase 1b): 0 n (%)
Dizziness TRAE, any grade (150 mg phase 1b): 12 (12.1) n (%)
Dizziness TRAE, grade ≥3 (150 mg phase 1b): 0 n (%)
Dry mouth TEAE, any grade (150 mg phase 1b): 15 (15.2) n (%)
Dry mouth TEAE, grade ≥3 (150 mg phase 1b): 0 n (%)
Dry mouth TRAE, any grade (150 mg phase 1b): 10 (10.1) n (%)
Dry mouth TRAE, grade ≥3 (150 mg phase 1b): 0 n (%)
Dysphonia TEAE, any grade (150 mg phase 1b): 26 (26.3) n (%)
Dysphonia TEAE, grade ≥3 (150 mg phase 1b): 0 n (%)
Dysphonia TRAE, any grade (150 mg phase 1b): 13 (13.1) n (%)
Dysphonia TRAE, grade ≥3 (150 mg phase 1b): 0 n (%)
Dyspnea TEAE, any grade (150 mg phase 1b): 19 (19.2) n (%)
Dyspnea TEAE, grade ≥3 (150 mg phase 1b): 2 (2.0) n (%)
Edema peripheral TEAE, any grade (150 mg phase 1b): 16 (16.2) n (%)
Edema peripheral TEAE, grade ≥3 (150 mg phase 1b): 0 n (%)
Endocrine disorders TEAE, any grade (150 mg phase 1b): 27 (27.3) n (%)
Endocrine disorders TEAE, grade ≥3 (150 mg phase 1b): 2 (2.0) n (%)
Fatigue TEAE, any grade (150 mg phase 1b): 55 (55.6) n (%)
Fatigue TEAE, grade ≥3 (150 mg phase 1b): 9 (9.1) n (%)
Fatigue TRAE, any grade (150 mg phase 1b): 49 (49.5) n (%)
Fatigue TRAE, grade ≥3 (150 mg phase 1b): 7 (7.1) n (%)
Gastrointestinal disorders TEAE, any grade (150 mg phase 1b): 89 (89.9) n (%)
Gastrointestinal disorders TEAE, grade ≥3 (150 mg phase 1b): 33 (33.3) n (%)
General disorders and administration site conditions TEAE, any grade (150 mg phase 1b): 72 (72.7) n (%)
General disorders and administration site conditions TEAE, grade ≥3 (150 mg phase 1b): 12 (12.1) n (%)
Headache TEAE, any grade (150 mg phase 1b): 18 (18.2) n (%)
Headache TEAE, grade ≥3 (150 mg phase 1b): 1 (1.0) n (%)
Hypertension TEAE, any grade (150 mg phase 1b): 52 (52.5) n (%)
Hypertension TEAE, grade ≥3 (150 mg phase 1b): 29 (29.3) n (%)
Hypertension TRAE, any grade (150 mg phase 1b): 46 (46.5) n (%)
Hypertension TRAE, grade ≥3 (150 mg phase 1b): 24 (24.2) n (%)
Hypokalemia TEAE, any grade (150 mg phase 1b): 13 (13.1) n (%)
Hypokalemia TEAE, grade ≥3 (150 mg phase 1b): 3 (3.0) n (%)
Hypomagnesemia TEAE, any grade (150 mg phase 1b): 17 (17.2) n (%)
Hypomagnesemia TEAE, grade ≥3 (150 mg phase 1b): 0 n (%)
Hyponatremia TEAE, any grade (150 mg phase 1b): 16 (16.2) n (%)
Hyponatremia TEAE, grade ≥3 (150 mg phase 1b): 5 (5.1) n (%)
Hypophosphatemia TEAE, any grade (150 mg phase 1b): 15 (15.2) n (%)
Hypophosphatemia TEAE, grade ≥3 (150 mg phase 1b): 9 (9.1) n (%)
Hypothyroidism TEAE, any grade (150 mg phase 1b): 22 (22.2) n (%)
Hypothyroidism TEAE, grade ≥3 (150 mg phase 1b): 0 n (%)
Hypothyroidism TRAE, any grade (150 mg phase 1b): 16 (16.2) n (%)
Hypothyroidism TRAE, grade ≥3 (150 mg phase 1b): 0 n (%)
Infections and infestations TEAE, any grade (150 mg phase 1b): 40 (40.4) n (%)
Infections and infestations TEAE, grade ≥3 (150 mg phase 1b): 12 (12.1) n (%)
Injury, poisoning, procedural complications TEAE, any grade (150 mg phase 1b): 20 (20.2) n (%)
Injury, poisoning, procedural complications TEAE, grade ≥3 (150 mg phase 1b): 2 (2.0) n (%)
Investigations TEAE, any grade (150 mg phase 1b): 66 (66.7) n (%)
Investigations TEAE, grade ≥3 (150 mg phase 1b): 23 (23.2) n (%)
Lipase increased TEAE, any grade (150 mg phase 1b): 15 (15.2) n (%)
Lipase increased TEAE, grade ≥3 (150 mg phase 1b): 10 (10.1) n (%)
Metabolism and nutrition disorders TEAE, any grade (150 mg phase 1b): 71 (71.7) n (%)
Metabolism and nutrition disorders TEAE, grade ≥3 (150 mg phase 1b): 26 (26.3) n (%)
Musculoskeletal and connective tissue disorders TEAE, any grade (150 mg phase 1b): 56 (56.6) n (%)
Musculoskeletal and connective tissue disorders TEAE, grade ≥3 (150 mg phase 1b): 8 (8.1) n (%)
Nausea TEAE, any grade (150 mg phase 1b): 49 (49.5) n (%)
Nausea TEAE, grade ≥3 (150 mg phase 1b): 7 (7.1) n (%)
Nausea TRAE, any grade (150 mg phase 1b): 38 (38.4) n (%)
Nausea TRAE, grade ≥3 (150 mg phase 1b): 5 (5.1) n (%)
Neoplasms benign, malignant, unspecified TEAE, any grade (150 mg phase 1b): 10 (10.1) n (%)
Neoplasms benign, malignant, unspecified TEAE, grade ≥3 (150 mg phase 1b): 8 (8.1) n (%)
Nervous system disorders TEAE, any grade (150 mg phase 1b): 50 (50.5) n (%)
Nervous system disorders TEAE, grade ≥3 (150 mg phase 1b): 5 (5.1) n (%)
PPE syndrome TEAE, any grade (150 mg phase 1b): 23 (23.2) n (%)
PPE syndrome TEAE, grade ≥3 (150 mg phase 1b): 4 (4.0) n (%)
PPE syndrome TRAE, any grade (150 mg phase 1b): 22 (22.2) n (%)
PPE syndrome TRAE, grade ≥3 (150 mg phase 1b): 4 (4.0) n (%)
Pain in extremity TEAE, any grade (150 mg phase 1b): 15 (15.2) n (%)
Pain in extremity TEAE, grade ≥3 (150 mg phase 1b): 2 (2.0) n (%)
Proteinuria TEAE, any grade (150 mg phase 1b): 11 (11.1) n (%)
Proteinuria TEAE, grade ≥3 (150 mg phase 1b): 0 n (%)
Proteinuria TRAE, any grade (150 mg phase 1b): 9 (9.1) n (%)
Proteinuria TRAE, grade ≥3 (150 mg phase 1b): 0 n (%)
Psychiatric disorders TEAE, any grade (150 mg phase 1b): 25 (25.3) n (%)
Psychiatric disorders TEAE, grade ≥3 (150 mg phase 1b): 1 (1.0) n (%)
Rash TEAE, any grade (150 mg phase 1b): 12 (12.1) n (%)
Rash TEAE, grade ≥3 (150 mg phase 1b): 0 n (%)
Rash TRAE, any grade (150 mg phase 1b): 11 (11.1) n (%)
Rash TRAE, grade ≥3 (150 mg phase 1b): 0 n (%)
Renal and urinary disorders TEAE, any grade (150 mg phase 1b): 23 (23.2) n (%)
Renal and urinary disorders TEAE, grade ≥3 (150 mg phase 1b): 1 (1.0) n (%)
Respiratory, thoracic and mediastinal disorders TEAE, any grade (150 mg phase 1b): 65 (65.7) n (%)
Respiratory, thoracic and mediastinal disorders TEAE, grade ≥3 (150 mg phase 1b): 14 (14.1) n (%)
Serious TEAE (150 mg phase 1b): 49 (49.5) n (%)
Serious TRAE (150 mg phase 1b): 22 (22.2) n (%)
Skin and subcutaneous tissue disorders TEAE, any grade (150 mg phase 1b): 55 (55.6) n (%)
Skin and subcutaneous tissue disorders TEAE, grade ≥3 (150 mg phase 1b): 6 (6.1) n (%)
Stomatitis TEAE, any grade (150 mg phase 1b): 14 (14.1) n (%)
Stomatitis TEAE, grade ≥3 (150 mg phase 1b): 1 (1.0) n (%)
Stomatitis TRAE, any grade (150 mg phase 1b): 14 (14.1) n (%)
Stomatitis TRAE, grade ≥3 (150 mg phase 1b): 1 (1.0) n (%)
TEAE grade ≥3 (150 mg phase 1b): 80 (80.8) n (%)
TEAE leading to death (150 mg phase 1b): 10 (10.1) n (%)
TEAE leading to discontinuation (150 mg phase 1b): 24 (24.2) n (%)
TEAE leading to treatment modification (150 mg phase 1b): 74 (74.7) n (%)
TRAE grade ≥3 (150 mg phase 1b): 61 (61.6) n (%)
TRAE leading to death (150 mg phase 1b): 1 (1.0) n (%)
TRAE leading to discontinuation (150 mg phase 1b): 17 (17.2) n (%)
TRAE leading to treatment modification (150 mg phase 1b): 66 (66.7) n (%)
UTI TEAE, any grade (150 mg phase 1b): 14 (14.1) n (%)
UTI TEAE, grade ≥3 (150 mg phase 1b): 3 (3.0) n (%)
Vascular disorders TEAE, any grade (150 mg phase 1b): 61 (61.6) n (%)
Vascular disorders TEAE, grade ≥3 (150 mg phase 1b): 32 (32.3) n (%)
Vomiting TEAE, any grade (150 mg phase 1b): 38 (38.4) n (%)
Vomiting TEAE, grade ≥3 (150 mg phase 1b): 10 (10.1) n (%)
Vomiting TRAE, any grade (150 mg phase 1b): 31 (31.3) n (%)
Vomiting TRAE, grade ≥3 (150 mg phase 1b): 5 (5.1) n (%)
Weight decreased TEAE, any grade (150 mg phase 1b): 28 (28.3) n (%)
Weight decreased TEAE, grade ≥3 (150 mg phase 1b): 3 (3.0) n (%)
Weight decreased TRAE, any grade (150 mg phase 1b): 18 (18.2) n (%)
Weight decreased TRAE, grade ≥3 (150 mg phase 1b): 2 (2.0) n (%)
ALT increased TEAE, any grade (Overall): 46 (23.8) n (%)
ALT increased TEAE, grade ≥3 (Overall): 5 (2.6) n (%)
ALT increased TRAE, any grade (Overall): 35 (18.1) n (%)
ALT increased TRAE, grade ≥3 (Overall): 3 (1.6) n (%)
AST increased TEAE, any grade (Overall): 47 (24.4) n (%)
AST increased TEAE, grade ≥3 (Overall): 4 (2.1) n (%)
